Test results taken from US10105380B2, “Glycoclusters and their pharmaceutical use as antibacterials” (priority 2013, dated 2018).
≈ marks a conversion by molar mass, not a printed value. Read-outs that look alike come from different tables or passages of the source.

Columns and labels:
[1] = target: T1, PA-IL (Pseudomonas aeruginosa, UniProt Q05097); assay: Hemagglutination inhibition assay (HIA), rabbit erythrocytes; assay type: cell-based
Protocol: (§1) The binding of PA-IL to galactoclusters was probed as the ability of the clusters to inhibit the binding of PA-IL to rabbit erythrocytes (Hemagglutination inhibition assay, HIA) or to surface bound galactosyl modified polyacrylamide either by Surface Plasmon Resonance (SPR), Enzyme Linked Assay (ELLA) Inhibition was measured with competitive assays. In HIA experiments, the minimal inhibitory concentration (MIC) is the minimal concentration of galactocluster that inhibit the hemagglutination of rabbit erythrocytes in presence of the lectin. The lower the MIC the highest is the binding of the galactocluster to the lectin. SPR and ELLA were used to determine the IC50 value. […] The lower the IC50 value as determined by SPR (^SPRIC50) and ELLA (^ELLAIC50), the higher is the binding of PA-IL to the galactocluster.
Hemagglutination inhibition assays (HIA) were performed in U-shaped 96-well microtitre plates. Rabbit erythrocytes were purchased from Biomérieux and used without further washing. Erythrocytes were diluted to a 8% solution in NaCl (100 mM). PA-IL solutions of 3 μM were prepared in TRIS-HCl 20 mM (TRIS=tris(hydroxymethyl)aminomethane), NaCl 100 mM, and CaCl2 100 mM. The hemagglutination unit (HU) was first obtained by addition of the 4% erythrocyte solution (50 μL) to aliquots (50 μL) of sequential (twice) lectin dilutions. The mixture was incubated at 25° C. for 30 min. The HU was measured as the minimum lectin concentration required to observe hemagglutination. For the following lectin-inhibition assays, lectin concentrations of 4 HU were used. […] Subsequent inhibition assays were then carried out by the addition of lectin solution (25 μL, at the required concentration) to sequential dilutions (50 μL) of glycoclusters, monomer molecules, and controls. These solutions were incubated at 37° C. for 30 min, then 8% erythrocyte solution (25 μL) was added, followed by an additional incubation at 37° C. for 1 h. The minimum inhibitory concentration for each molecule was determined for each duplicate.

[2] = target: T1, PA-IL; assay: Enzyme Linked Lectin Assay (ELLA), PAA-galactose coated plates; assay type: binding; settings: for ELLA βAr: IC50 of Gal-ArNO2 over IC50 of the molecule
Protocol: as §1
96-Well microtiter plates (NuncMaxisorb) were coated with α-PAA-Gal(PAA=polyacrylamide) for PA-IL (Lectinity Holding, Inc.): 100 μL of 5 μg·mL^−1 in carbonate buffer, pH 9.6 for 1 h at 37° C., then blocking at 37° C. for 1 h with 100 μL per well of 3% (w/v) bovine serum albumin (BSA) in phosphate buffer solution (PBS). Lectin solutions (75 μL) were diluted (1:2) starting from 30 μg·mL^−1. After 1 h incubation at 37° C. and three washes with T-PBS (PBS that contained 0.05% Tween 20), horseradish peroxidase (HRP)-streptavidin conjugate (100 μL; dilution 2:8000; Boehringer-Mannheim) was added and left for 1 h at 37° C. Coloration was developed by using 100 μL per well of 0.05% phosphate/citrate buffer that contained o-phenylenediaminedihydrochloride ([…]) and urea hydrogen peroxide (0.4 mg·mL^−1) (OPD kit, Sigma-Aldrich) for 15 min and stopped with sulfuric acid (50 μL, 30%). Absorbance was then read at 490 nm using a microtiter plate reader (BioRad 680). The concentration of biotinylatedlectins was determined by plotting the relative absorbance versus lectin concentration. The concentration that led to the highest response in the linear area was selected as the standard lectin concentration for the subsequent inhibition experiments.
Microtiter plates were modified with PAA-galactose. Slides were incubated with increasing concentration of galactosylated ligands. […] The lowest the IC50 as determined the strongest is the binding of the studied molecule to PA-IL. ELLA: This IC50 will be referred here after ^ELLAIC50. SPR: This IC50 will be referred here after ^SPRIC50.

[3] = target: T1, PA-IL; assay: Surface Plasmon Resonance (SPR) inhibition; assay type: binding; settings: for SPR βAr: IC50 of Gal-ArNO2 over IC50 of the molecule
Protocol: as §1
SPR inhibition experiments were performed using a Biacore 3000 instrument at 25° C. Measurements were carried out on two channels with two immobilized sugars: α-L-fucose (channel 1) and α-D-galactose (channel 2). Immobilization of sugars was performed at 25° C. using running buffer (HBS) at […]. Immobilization on each channel (CM5 Chip) was performed independently as follows. First, the channel was activated by injecting a fresh mixture of EDC/NHS (35 μL, 420 s). Then a solution of streptavidin ([…] in 0.1 mM AcONa pH 5 buffer) was injected (50 μL, 600 s). The remaining reactive species were quenched by injecting ethanolamine (1M, 35 μL, 420 s) into the solution. Finally, a solution of the desired biotinylated-polyacrylamide-sugar (lectinity, […]) was coated onto the surface (50 μL, 600 s) through streptavidin-biotin interaction. […] Inhibition studies consisted of the injection (150 μL, 10 μL·min^−1, dissociation 120 s) of incubated (>1 h, RT) mixtures of PAIL ([…]) and various concentrations of inhibitor (twofold cascade dilutions). […] The CM5 chip was fully regenerated by successive injections of d-galactose (2×30 μL, 100 mm in running buffer). Binding was measured as RU over time after blank subtraction, and data were then evaluated using the BIAevaluation Software version 4.1. For IC50 evaluation, the response (Req-fitted) was considered to be the amount of lectin bound to the carbohydrate-coated surface at equilibrium in the presence of a defined concentration of inhibitor. Inhibition curves were obtained by plotting the percentage of inhibition against the inhibitor concentration (on a logarithmic scale) by using Origin 7.0 software (OriginLab Corp.), and IC50 values were extracted from sigmoidal fit of the inhibition curve.
Microtiter plates were modified with PAA-galactose. […] The lowest the IC50 as determined the strongest is the binding of the studied molecule to PA-IL. […]

[4] = target: T1, PA-IL; assay type: binding; settings: for β: Table 6, relative potency vs monovalent ligand 31; for Potency vs EG3-O-Gal: ratio of IC50Lac to mono EG3-O-galactose (entry 1); for Potency vs AcNPhe-O-Gal: ratio of IC50Lac to mono-aromatic galactose 31 (entry 2)
Protocol: IC50 Determination with “on Chip” Biological Recognition
Lectin PA-IL (0.12 μM final concentration), BSA (2% final concentration) and CaCl2 (1 μg/mL final concentration) was diluted in PBS1× (pH=7.4). In each micro tube was added the inhibitor lactose at the desired final concentration (0; 1.10^−5; 1.10^−4; 5.10^−4; 1.10^−3; 5.10^−3; 1.10^−2; 5.10^−2; 0.1; 1; 5; 10; 50; 10^2; 5.10^2; 10^3; 5.10^3; 10^4; 10^5; 3.10^5).
2 μL of each solution were deposited in the corresponding microwells and the slide was incubated at 37° C. in a water vapor saturated chamber for 3 h. The washing steps are: PBS-Tween0.2% 5 min at 4° C., then briefly in deionized water and dried by centrifugation.
Slide was scanned at 532 nm then at 635 nm with the Microarray scanner, GenePix 4100A software package (Axon Instruments; λex 532/635 nm and λem 575/670 nm). The fluorescence signal of each conjugate was determined as the average of the mean fluorescence signal of sixty-four spots.
IC50 values were determined using “BioDataFit 1.02 program”. The model chosen was “Sigmoidal”: Y=a+(b−a)/[1+10^(x−c)]
with a=FImin, b=FImax, x=[…] and c=log(IC50). FImin/max is the minimum/maximum Alexa-647 fluorescence signal observed for a galactomimetic.
So the IC50 value was called IC50Lac.

[5] = target: T1, PA-IL; assay: Kd determination on DDI microarray (Langmuir isotherm, Scatchard plot); assay type: binding
Protocol: The methodologies for Kd and IC50 value determination have been previously reported (Gerland, B. et al., (2012) Bioconjugate Chem. 23, 1534-1547; Zhang, J. et al., (2009) Chem. Comm., 6795-6797; Zhang, J. et al., (2009) Biosens. Bioelectron. 24, 2515-2521).
CaCl2 (1 μg/mL final concentration) was added. PA-IL at the desired final concentration was then added. 2 μL of each solution (corresponding to the desired PA-IL concentration) were poured in the corresponding microwells. The slide was incubated (3 h, 37° C.) in a water vapor saturated chamber and finally washed in PBS-Tween 20 (0.02%, 5 min, 4° C.) and dried. A Microarray scanner, GenePix 4100A software package (Axon Instruments; λex 532/635 nm and λem 575/670 nm) was used for fluorescent imaging of both fluorophore (Cy3 and Alexa 647). The average of the mean fluorescence signal was calculated from eight spots. The resulting Langmuir Isotherms were linearised using Scatchard plot to give the Kd values at the ordonnate intercept.

[6] = IC50 of Gal-OMe over IC50 of the molecule
[7] = DNA-tagged galactoclusters G1-G24 on glycoarray, read-out: IC50
[8] = DNA-tagged galactoclusters G1-G24 on glycoarray
[9] = lactose concentration required to displace 50% of PA-IL from the glycocluster, higher = better binding, read-out: IC50Lac

T1 sequence (Q05097 2-122): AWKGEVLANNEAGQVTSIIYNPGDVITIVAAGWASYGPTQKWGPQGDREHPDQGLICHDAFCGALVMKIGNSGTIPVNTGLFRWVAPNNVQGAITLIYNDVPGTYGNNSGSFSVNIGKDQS

Compound | IC50 [4, 7] [µM] | Kd [5, 8] [µM] | further results
O=[N+]([O-])c1ccc(O[C@@H]2O[C@H](CO)[C@H](O)[C@H](O)[C@H]2O)cc1 [Gal-ArNO2, 1-O-p-nitrophenyl-β-D-galactoside] | – | – | MIC ([1]; minimal inhibitory concentration of hemagglutination, PA-IL 3 μM): 2000 µM (≈ 603 µg/mL); βAr ([1]; ratio of MIC of Gal-OArNO2 over MIC of the molecule): 1.0; βMe ([1]; ratio of MIC of Gal-OMe over MIC of the molecule): 8.0; IC50 [2]: 33 µM; ELLA βAr [2]: 1.0; ELLA βMe [2, 6]: 5.5; IC50 [3]: 6.7 µM; SPR βAr [3]: 1.0; SPR βMe [3, 6]: 7.3
Man(EG2MTzAcNPhe-CH2-SGal)4 [G13] | 12000 | 0.085 | –
Man(EG2MTzproNCOBisphe-OGal)4 [G17] | – | 0.02 | –
Man(EG2MTzproNCONapht-OGal)4 [G21] | – | 0.014 | –
Man(EG3MTzAcNPh-SGal)4 [G11] | 63900 | 0.049 | –
Man(EG3MTzAcNPhe-CH2-Gal)4 [G7] | 9100 | 0.085 | –
Man(EG3MTzAcNPhe-CH2-SGal)4 [G15] | 13300 | 0.076 | –
Man(EG3MTzproNCOBisphe-OGal)4 [G19] | 68900 | 0.046 | –
Man(EG3MTzproNCONapht-OGal)4 [G23] | 68000 | 0.048 | –
Man(POEG2MTzAcNPhe-O-Gal)4 [compound 32] | – | – | IC50 ([4]; Table 6, DNA-galactomimetics, lactose as inhibitor, read-out: microarray IC50Lac): 4220 µM; β [4]: 264; IC50 [4, 9]: 4220 µM; Potency vs EG3-O-Gal [4]: 844; Potency vs AcNPhe-O-Gal [4]: 264; Kd ([5]; text b577, microarray, Langmuir isotherm): 0.083 µM
Man(POEG2MTzEG3-Gal)4 [compound 36] | – | – | IC50 [4, 9]: 24 µM; Potency vs EG3-O-Gal [4]: 4.8; Potency vs AcNPhe-O-Gal [4]: 1.5
Man(POProTzAcNPhe-O-Gal)8 [compound 34] | – | – | IC50 [4, 9]: 6800 µM; Potency vs EG3-O-Gal [4]: 1361; Potency vs AcNPhe-O-Gal [4]: 425
Man(POProTzEG3-O-Gal)4 | – | – | ELLA βAr [2]: 1.2; SPR βAr [3]: 1.7
Man(POProTzEG3-O-Gal)4 [C3] | – | – | β [4]: 1.8; IC50 [4, 9]: 29 µM; Potency vs EG3-O-Gal [4]: 5.8; Potency vs AcNPhe-O-Gal [4]: 1.8
Man(PSEG2MTzAcNPh-SGal)4 [G10] | 38200 | 0.055 | –
Man(PSEG2MTzAcNPhe-CH2-Gal)4 [G6] | 5700 | 0.17 | –
Man(PSEG2MTzAcNPhe-CH2-SGal)4 [G14] | 18500 | 0.071 | –
Man(PSEG2MTzproNCONapht-OGal)4 [G22] | – | 0.02 | –
Man(PSEG3MTzAcNPh-Gal)4 [G4] | 17700 | 0.076 | –
Man(PSEG3MTzAcNPh-SGal)4 [G12] | 19700 | 0.07 | –
Man(PSEG3MTzAcNPhe-CH2-Gal)4 [G8] | 8400 | 0.125 | –
Man(PSEG3MTzAcNPhe-CH2-SGal)4 [G16] | 18100 | 0.075 | –
Man(PSEG3MTzproNCOBisphe-OGal)4 [G20] | 81600 | 0.043 | –
Man(PSEG3MTzproNCONapht-OGal)4 [G24] | – | 0.031 | –
Man[POTHME(MTzAcNPhe-O-Gal)2]4 [compound 35] | – | – | IC50 [4, 9]: 1810 µM; Potency vs EG3-O-Gal [4]: 361; Potency vs AcNPhe-O-Gal [4]: 113
